In patent publication US11999737B2, “Kinase inhibitors and related methods of use” (Duke University, priority 2014, dated 2024):
Entries after “also recorded” stand apart in the source; their conditions may differ.

Columns and labels:
[1] = tested on: rat caudal arterial smooth muscle (RTA); experiment: Calyculin A-induced contraction of rat caudal arterial smooth muscle (RTA) strips
Protocol: Tissue preparation and Force Measurement for RTA smooth muscle: Caudal arteries were removed from male Sprague-Dawley rats (300-350 g) that had been anesthetized and euthanized according to protocols approved by the University of Calgary Animal Care and Use Committee. The arteries were cleaned of excess adventitia, de-endothelialized and cut into helical strips (1.5 mm×6 mm). Muscle strips were mounted on a Grass isometric force transducer (FT03C), and force was recorded. Intact tissues were treated with calyculin A (CLa, […]). At selected sampling points, muscle strips were flash-frozen in 10% (w/v) TCA, 10 mM DTT in acetone followed by 3×10 s washes in 10 mM DTT in acetone. Tissues were then lyophilized overnight. Protein was extracted from each arterial strip by incubation (16 h, 5° C.) in 0.5 mL of SDS-PAGE sample buffer.
In this case, calyculin A (CLa, 10^−7M)-induced contractions were used since inhibition of myosin phosphatase activity in RTA unmasks endogenous Ca^2+-independent LC20 kinase activities, including ZIPK. Experiments were performed with addition of inhibitors for ROK (HA-1152, 10^−6 M; GSK429286A, 10^−5M) in combination with HS-38. Combining ROK and ZIPK inhibitors had no effect on Ca^2+-sensitization (force generation or downstream ZIPK target phosphorylation).
Data were collected for RTA smooth muscle contraction in the presence and absence of HS-38, including measurements of contractile force development, and the concentration dependency of these effects. […] The t1/2 max value is defined as the time required for contractile force to reach 50% of maximal tone.
The latency period, i.e. the time from addition of calyculin A to the onset of contraction, and the half-time from the initiation of contraction to the plateau of the contractile response, were determined, in addition to the t1/2 values (the half-time from addition of calyculin A to the plateau of the contractile response) determined previously, in the absence and presence of HS-38. […] On the other hand, the steady-state level of force induced by calyculin A was unaffected by ZIPK inhibition. The results support the ability of HS38 to suppress the initiation and rate of contractile tone without altering the total force potential of the muscle.

[2] = tested on: human cerebral arterioles; experiment: Pressure myography of isolated human cerebral arterioles, myogenic tone; details: HS-38 10 μM, ex vivo
Text: A human cerebral artery (CA) was harvested during a tumour removal. Cerebral tissue was obtained from a person with metastatic adenocarcinoma from lung. Surface vessels of the anterior cerebral artery off the midline over the left anterior frontal lobe were dissected for analysis. […] Pressure-induced changes in arteriolar diameter (A) as well as diameter-pressure relationships (B) and arterial constriction (C) are shown. Data are from n=1 vessel. The passive diameter at 120 mmHg was ˜290 μm. Vessels of similar diameter were isolated, proteins were extracted with SDS-PAGE buffer and immunoblotted (D) for ZIPK and α-actin as a loading control.
A human cerebral artery (CA) was harvested during a tumor removal. Cerebral tissue was obtained from a person with metastatic adenocarcinoma from lung. Surface vessels of the anterior cerebral artery off the midline over the left anterior frontal lobe were dissected for analysis. […]
Pressure-induced changes in arteriole diameter (A) as well as diameter-pressure relationships (B) and arterial constriction (C) are shown. […] Bands were quantified with a LAS4000 gel analyzer.
Tissues were obtained from patients undergoing resections for treatment for epilepsy or tumors. Surface vessels of ˜200 μm diameter were analyzed by pressure myography and western immunoblotting.

LC20 phosphorylation = tested on: LC20 phosphorylation; set-up: species or system rat
[3] = tested on: posterior cerebral arteries of spontaneous hypertensive rat (SHR); experiment: Pressure myography of posterior cerebral arteries of SHR, enhanced myogenic tone; details: HS-38 10 μM, 10-wk SHR
Text: Data are means (n=2 animals) for size-matched vessels from 10-wk SHR rats. The average maximum passive diameters at 120 mmHg were 280 μm. Representative pressure-induced changes in arteriolar diameter (A) as well as mean diameter-pressure relationships (B) and active myogenic constriction (C) are shown.
Posterior cerebral arteries (PCAs) from male Sprague-Dawley rats were isolated and mounted/cannulated for pressure myography. Briefly, 2-3 mm arterial segments are mounted across glass canuli in an arteriograph chamber attached to a pressure myograph (Living Systems, Burlington, Vt. USA) and tied in place using silk suture. Endothelial cells are removed by passing a stream of air bubbles through the vessel lumen (this methodology was confirmed by loss of dilatory response to acetylcholine). […] After this, arteriole myogenic responses (i.e., vessel diameter) to increasing luminal pressure were monitored ex vivo in the absence or presence of HS-38. […] This series of steps is repeated in normal Krebs buffer, with the addition of ZIPK inhibitor (i.e., 10 μM HS-38) and finally in Ca^2+ free Krebs (same constitution as normal Krebs with no CaCl2 and added EGTA (2 mM), Data are collected as average vessel diameter over stable region of each step and expressed as a percentage of the maximal passive vessel diameter (120 mmHg, 0Ca^2+) to standardize for variation in size of […]. […]

LC20 monophosphorylation = tested on: LC20 monophosphorylation; set-up: species or system rat

CC(Sc1nc2c(cnn2-c2cccc(Cl)c2)c(=O)[nH]1)C(N)=O (centres unmarked) [HS38]
contractile force during the Ca2+ sensitization process ([1]; calyculin A): concentration-dependent attenuation
t1/2max; time to reach 50% of maximal contractile force ([1]; calyculin A 10^−7 M, increasing concentrations of HS-38): concentration-dependent increases
Latency (s) ([1]; calyculin A with HS-38, n = 28, mean ± SEM): *654.7 ± 60.6 s
% KCl contraction ([1]; steady-state force, calyculin A with HS-38, n = 28, mean ± SEM): **161.7 ± 8.4%
myogenic tone development [2]: appeared to attenuate; also recorded: suppressed
LC20 mono- and diphosphorylation (LC20 phosphorylation): time-dependent attenuations
enhanced myogenic tone at low basal luminal pressures [3]: can be attenuated
levels of LC20 monophosphorylation induced by KCl and Ang II (LC20 monophosphorylation): could attenuate
